Assay results as given in PubChem BioAssay (NCI).
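How tested: cells in 96-well plates exposed to compound for 48 hours at five concentrations. TGI denotes the concentration required for complete inhibition of growth.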

Experiments:
Test in all cases: NCI anticancer screen, dose series, 48 h
786-0 renal = test system: 786-0 renal
A498 renal = test system: A498 renal
A549 NSCLC = test system: A549 NSCLC
ACHN renal = test system: ACHN renal
BT-549 breast = test system: BT-549 breast
CAKI-1 renal = test system: CAKI-1 renal
CCRF-CEM leukemia = test system: CCRF-CEM leukemia
COLO 205 colon = test system: COLO 205 colon
DLD-1 colon = test system: DLD-1 colon
DMS 114 small cell lung = test system: DMS 114 small cell lung
DU-145 prostate = test system: DU-145 prostate
EKVX NSCLC = test system: EKVX NSCLC
HCC-2998 colon = test system: HCC-2998 colon
HCT-116 colon = test system: HCT-116 colon
HCT-15 colon = test system: HCT-15 colon
HL-60(TB) leukemia = test system: HL-60(TB) leukemia
HOP-18 NSCLC = test system: HOP-18 NSCLC
HOP-62 NSCLC = test system: HOP-62 NSCLC
HOP-92 NSCLC = test system: HOP-92 NSCLC
HS 578T breast = test system: HS 578T breast
HT29 colon = test system: HT29 colon
IGROV1 ovarian = test system: IGROV1 ovarian
K-562 leukemia = test system: K-562 leukemia
KM12 colon = test system: KM12 colon
KM20L2 colon = test system: KM20L2 colon
LOX IMVI melanoma = test system: LOX IMVI melanoma
LXFL 529 NSCLC = test system: LXFL 529 NSCLC
M14 melanoma = test system: M14 melanoma
MALME-3M melanoma = test system: MALME-3M melanoma
MCF7 breast = test system: MCF7 breast
MDA-MB-231 breast = test system: MDA-MB-231 breast
MDA-MB-435 = test system: MDA-MB-435
MDA-N = test system: MDA-N
MOLT-4 leukemia = test system: MOLT-4 leukemia
NCI-H226 lung = test system: NCI-H226 lung
NCI-H23 lung = test system: NCI-H23 lung
NCI-H460 lung = test system: NCI-H460 lung
NCI-H522 lung = test system: NCI-H522 lung
NCI/ADR-RES ovarian = test system: NCI/ADR-RES ovarian
OVCAR-3 ovarian = test system: OVCAR-3 ovarian
OVCAR-4 ovarian = test system: OVCAR-4 ovarian
OVCAR-5 ovarian = test system: OVCAR-5 ovarian
OVCAR-8 ovarian = test system: OVCAR-8 ovarian
PC-3 prostate = test system: PC-3 prostate
RPMI-8226 leukemia = test system: RPMI-8226 leukemia
RXF 393 renal = test system: RXF 393 renal
SF-268 CNS = test system: SF-268 CNS
SF-295 CNS = test system: SF-295 CNS
SF-539 CNS = test system: SF-539 CNS
SK-MEL-2 melanoma = test system: SK-MEL-2 melanoma
SK-MEL-28 melanoma = test system: SK-MEL-28 melanoma
SK-MEL-5 melanoma = test system: SK-MEL-5 melanoma
SK-OV-3 ovarian = test system: SK-OV-3 ovarian
SN12C renal = test system: SN12C renal
SNB-19 CNS = test system: SNB-19 CNS
SNB-75 CNS = test system: SNB-75 CNS
SNB-78 CNS = test system: SNB-78 CNS
SR leukemia = test system: SR leukemia
SW-620 colon = test system: SW-620 colon
T-47D breast = test system: T-47D breast
TK-10 renal = test system: TK-10 renal
U251 CNS = test system: U251 CNS
UACC-257 melanoma = test system: UACC-257 melanoma
UACC-62 melanoma = test system: UACC-62 melanoma
UO-31 renal = test system: UO-31 renal

CN(C)CCNc1ccc2nnn3c4ccc(O)cc4c(=O)c1c23
TGI (786-0 renal): 15.4 µM
TGI (A498 renal): 12.1 µM
TGI (A549 NSCLC): 13 µM
TGI (ACHN renal): 26.1 µM
TGI (BT-549 breast): 28.5 µM
TGI (CAKI-1 renal): 20 µM
TGI (CCRF-CEM leukemia): 32.9 µM
TGI (COLO 205 colon): 18.2 µM
TGI (DLD-1 colon): 22.7 µM
TGI (DMS 114 small cell lung): 20.9 µM
TGI (DU-145 prostate): 18.6 µM
TGI (EKVX NSCLC): 18.5 µM
TGI (HCC-2998 colon): 19.6 µM
TGI (HCT-116 colon): 13.5 µM
TGI (HCT-15 colon): 13.4 µM
TGI (HL-60(TB) leukemia): 23.6 µM
TGI (HOP-18 NSCLC): 50.5 µM
TGI (HOP-62 NSCLC): 17.2 µM
TGI (HOP-92 NSCLC): 26.5 µM
TGI (HS 578T breast): 11.5 µM
TGI (HT29 colon): 16.1 µM
TGI (IGROV1 ovarian): 17.2 µM
TGI (K-562 leukemia): > 37.7 µM
TGI (KM12 colon): 13.5 µM
TGI (KM20L2 colon): 22.7 µM
TGI (LOX IMVI melanoma): 6.41 µM
TGI (LXFL 529 NSCLC): 19 µM
TGI (M14 melanoma): 21.2 µM
TGI (MALME-3M melanoma): 19.5 µM
TGI (MCF7 breast): 16 µM
TGI (MDA-MB-231 breast): 4.81 µM
TGI (MDA-MB-435): 17.1 µM
TGI (MDA-N): 15 µM
TGI (MOLT-4 leukemia): 9.56 µM
TGI (NCI-H226 lung): 23.6 µM
TGI (NCI-H23 lung): 17.3 µM
TGI (NCI-H460 lung): 11.4 µM
TGI (NCI-H522 lung): 18.8 µM
TGI (NCI/ADR-RES ovarian): 12.6 µM
TGI (OVCAR-3 ovarian): 27.8 µM
TGI (OVCAR-4 ovarian): 9.63 µM
TGI (OVCAR-5 ovarian): 19.9 µM
TGI (OVCAR-8 ovarian): 16.8 µM
TGI (PC-3 prostate): 12.1 µM
TGI (RPMI-8226 leukemia): 24.6 µM
TGI (RXF 393 renal): 14.3 µM
TGI (SF-268 CNS): 20.7 µM
TGI (SF-295 CNS): 15.3 µM
TGI (SF-539 CNS): 15.6 µM
TGI (SK-MEL-2 melanoma): 22.6 µM
TGI (SK-MEL-28 melanoma): 23.4 µM
TGI (SK-MEL-5 melanoma): 12.2 µM
TGI (SK-OV-3 ovarian): 29.7 µM
TGI (SN12C renal): 23.9 µM
TGI (SNB-19 CNS): 31.8 µM
TGI (SNB-75 CNS): 32.1 µM
TGI (SNB-78 CNS): 31.7 µM
TGI (SR leukemia): 16.4 µM
TGI (SW-620 colon): 15.6 µM
TGI (T-47D breast): 27.1 µM
TGI (TK-10 renal): 31.9 µM
TGI (U251 CNS): 16.2 µM
TGI (UACC-257 melanoma): 22.2 µM
TGI (UACC-62 melanoma): 19.7 µM
TGI (UO-31 renal): 13.8 µM
